Test results as given in patent publication US10834943B2, “Organic compounds having taste-modifying properties” (GIVAUDAN SA, priority 2013, dated 2020).

Test: Mango-flavoured beverage evaluated by a panel of experienced tasters
Details: 0.5 ppm dosed to mango drink (mango flavour 0.05% w/w, mango juice 0.18% w/w, sugar 8% w/w, citric acid 0.1% w/w)
Procedure: A mango-flavoured beverage was prepared using a standard mango flavour (0.05% w/w), mango juice (0.18% w/w), sugar (8% w/w) and citric acid (0.1% w/w).

Compound	taste of the mango drink versus the reference drink (panel agreement)
CCCCC/C=C\C/C=C\CCCCCCCC(=O)N1CCCC1C(=O)OC (centres unmarked) [Example 6, Methyl 1-((9Z,12Z)-octadeca-9,12-dienoyl)pyrrolidine-2-carboxylate]	more fruity and peach-like than the reference drink
CC/C=C\C/C=C\C/C=C\CCCCCCCC(=O)NC(C)C(=O)OC (centres unmarked) [Example 7, Methyl 2-((9Z,12Z,15Z)-octadeca-9,12,15-trienamido)propanoate]	more fully, more fatty than the reference drink
